Molecular target: T1, GTPase KRas [1-37] (Homo sapiens, UniProt G3V5T7)
T1 construct: 1-37
Test: wildtype Ras GTP binding inhibitors, SAR follow-up, biochemical, additional analogs, multiplex flow cytometry, Ki (AID 2038)
Details: not given

T1 sequence (G3V5T7 whole entry): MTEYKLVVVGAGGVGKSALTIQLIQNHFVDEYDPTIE

Row | SMILES | EC50 [µM]
1 | O=C1Nc2c(Cl)cccc2C1=C1Nc2ccccc2C1=O | 30
2 | O=C1Nc2c(Br)cccc2C1=C1Nc2ccccc2C1=O | 30
3 | O=C1Nc2c(F)cccc2C1=C1Nc2ccccc2C1=O | 30
4 | O=C1NC(=O)/C(=C2/C(=O)Nc3ccccc32)N1 | 30
5 | O=C1Nc2ccc(Br)cc2C1=C1Nc2ccccc2C1=O | 30
6 | O=C1Nc2ccccc2/C1=C1/Nc2ccccc2C1=O [2-[(3Z)-2-oxo-2,3-dihydro-1H-indol-3-ylidene]-2,3-dihydro-1H-indol-3-one] | 30
7 | O=C1N=c2ccccc2=C1c1[nH]c2ccccc2c1NO [3-[3-(hydroxyamino)-1H-indol-2-yl]-2-indolone] | 30
8 | O=C1N=c2ccc(Br)cc2=C1c1[nH]c2ccccc2c1NO [5-bromanyl-3-[3-(oxidanylamino)-1H-indol-2-yl]indol-2-one] | 30
9 | O=C1N=c2c(Br)cccc2=C1c1[nH]c2ccccc2c1NO [7-bromanyl-3-[3-(oxidanylamino)-1H-indol-2-yl]indol-2-one] | 37.5
10 | O=C1N=c2c(Cl)cccc2=C1c1[nH]c2ccccc2c1NO [7-chloro-3-[3-(hydroxyamino)-1H-indol-2-yl]-2-indolone] | 30
11 | O=C1N=c2c(F)cccc2=C1c1[nH]c2ccccc2c1NO [7-fluoro-3-[3-(hydroxyamino)-1H-indol-2-yl]-2-indolone] | 30
12 | O=C1NC(=S)N/C1=C1\C(=O)Nc2ccccc21 [(3Z)-3-(5-oxo-2-sulfanylideneimidazolidin-4-ylidene)-1H-indol-2-one] | 30
13 | COc1ccc2cc([C@H](C)C(=O)O)ccc2c1 [UNM-0000306098] | 30
14 | C[C@@H](C(=O)O)c1cccc(Oc2ccccc2)c1 [calcium;2-(3-phenoxyphenyl)propanoic acid;hydrate] | 30
15 | COc1ccc2cc([C@@H](C)C(=O)O)ccc2c1 [sodium;(2R)-2-(6-methoxy-2-naphthalenyl)propanoate] | 3.11

Same assay, conditions: inactive by the depositor's call

Row | SMILES | EC50 [µM]
16 | O=C1Nc2cccc(Br)c2/C1=C1/Cc2ccccc2C1=O | 30
17 | COc1ccc(S(=O)(=O)n2c(N)c(C#N)c(-c3ccccc3)c2C(=O)c2ccc(Br)cc2)cc1 | 30
18 | O=[N+]([O-])c1ccc(C#Cc2ccccc2)cc1 | 30
19 | O=C(C#Cc1ccccc1)c1ccc(OC(F)(F)F)cc1 | 30
20 | COc1ccc(C(=O)C#Cc2ccccc2)cc1 [1-(4-methoxyphenyl)-3-phenyl-2-propyn-1-one] | 30
21 | O=C(C#Cc1ccccc1)c1ccc([N+](=O)[O-])cc1 [1-(4-nitrophenyl)-3-phenyl-2-propyn-1-one] | 30
22 | CC(C(=O)O)c1cccc(C(=O)c2ccccc2)c1 (configuration not stated) [2-(3-benzoylphenyl)propanoic acid] | 30
23 | COc1ccc2cc(CC(=O)O)ccc2c1 [2-(6-methoxynaphthalen-2-yl)ethanoic acid] | 30
24 | CC(=O)Oc1ccccc1C(=O)O [2-(acetyloxy)benzoic acid] | 30
25 | CCCCS(=O)(=O)n1c(N)c(C#N)c(-c2cc(OC)c(OC)c(OC)c2)c1C(=O)c1ccccc1 [2-amino-5-benzoyl-1-butylsulfonyl-4-(3,4,5-trimethoxyphenyl)-3-pyrrolecarbonitrile] | 30
26 | COc1ccc(S(=O)(=O)n2c(N)c(C#N)c(-c3cncc(Br)c3)c2C(=O)c2ccccc2)cc1 [2-amino-5-benzoyl-4-(5-bromo-3-pyridinyl)-1-(4-methoxyphenyl)sulfonyl-3-pyrrolecarbonitrile] | 30
27 | COc1ccc(-c2c(C#N)c(N)n(S(C)(=O)=O)c2C(=O)c2ccccc2)cc1Br [2-azanyl-4-(3-bromanyl-4-methoxy-phenyl)-1-methylsulfonyl-5-(phenylcarbonyl)pyrrole-3-carbonitrile] | 30
28 | COc1cc(-c2c(C#N)c(N)n(S(=O)(=O)c3c(C(C)C)cc(C(C)C)cc3C(C)C)c2C(=O)c2ccccc2)cc(OC)c1OC [2-azanyl-5-(phenylcarbonyl)-4-(3,4,5-trimethoxyphenyl)-1-[2,4,6-tri(propan-2-yl)phenyl]sulfonyl-pyrrole-3-carbonitrile] | 30
29 | O=C(C#Cc1ccccc1)c1cccnc1 [3-phenyl-1-pyridin-3-ylprop-2-yn-1-one] | 30
30 | COC(=O)c1ccc(C(=O)C#Cc2ccccc2)cc1 [4-(1-oxo-3-phenylprop-2-ynyl)benzoic acid methyl ester] | 30
31 | N#Cc1ccc(C(=O)C#Cc2ccccc2)cc1 [4-(3-phenylprop-2-ynoyl)benzenecarbonitrile] | 30
32 | O=C1Nc2c(Br)cccc2/C1=C1/Cc2ccccc2C1=O [(3E)-7-bromo-3-(3-oxo-1H-inden-2-ylidene)-1H-indol-2-one] | 30
33 | CC(C)Cc1ccc([C@H](C)C(=O)O)cc1 [(S)-2-(4-Isobutyl-phenyl)-propionic acid] | 30
34 | O=C1Nc2ccccc2/C1=C1/Cc2ccccc2C1=O [UNM-0000305763] | 30
35 | N#Cc1c(-c2ccc(Cl)cc2)c(C(=O)c2ccccc2)n(S(=O)(=O)c2ccc([N+](=O)[O-])cc2)c1N [UNM-0000305780] | 30
36 | COc1ccc(S(=O)(=O)n2c(N)c(C#N)c(-c3cc(Br)c(OC)c(OC)c3)c2C(=O)c2ccccc2)cc1 [UNM-0000305782] | 30
37 | O=C(C#Cc1ccccc1)c1ccccc1[N+](=O)[O-] [UNM-0000306038] | 30
38 | O=C(C#Cc1ccccc1)c1ccccc1 [UNM-0000306039] | 30
39 | O=C(C#Cc1ccccc1)c1ccc(Cl)cc1 [UNM-0000306055] | 30
40 | O=C(C#Cc1ccccc1)c1ccc(F)cc1 [UNM-0000306059] | 31
41 | CC1=C(CC(=O)O)c2cc(F)ccc2/C1=C/c1ccc([S+](C)[O-])cc1 (configuration not stated) [UNM-0000306136] | 30
42 | CSc1ccc(/C=C2/C(C)=C(CC(=O)O)c3cc(F)ccc32)cc1 [{6-Fluoro-2-methyl-3-[1-(4-methylsulfanyl-phenyl)-meth-(E)-ylidene]-3H-inden-1-yl}-acetic acid] | 30

— BindingDB's records for doi:10.7270/Q2D21W1M (Nmmlsc, 2009)
